pIC50: −log10 of the molar value. Read-outs that look alike come from different tables or passages of the source. One block for each molecule: values may come before it.
Legend:
[1] = test system: human breast cancer cells MDA-MB-231; experiment: Scratching assay, migration of MDA-MB-231 (Example 14); format: cell-based; conditions: 20 μmol/L, 0-24 h
Protocol: The inhibiting ability of 2-(4′-methyl-3′-nitrobenzoylamino)-3-indolylpropionic acid (TCI05), 2-(4′-methyl-3′-nitrobenzoylamino)-3-(4-hydroxy-phenyl) propionic acid (TCI06), 2-(4′-methyl-3′-nitrobenzenemethoxycarbonyl)-3-phenylpropionic acid (TCI07), 2-(4′-methyl-3′-nitrobenzenemethoxycarbonyl)-3-indolylpropionic acid (TCI08) for the migration of human breast cancer cells MDA-MB-231 was tested by scratching assay.
The MDA-MB-231 cells in logarithmic growth phase were seeded in the 6-well plate at a density of 1×10^6/3 ml, and 12 h later, TCI05, TCI06, TCI07, TCI08 (formulation was the same as TCI04) was added, 150 μl per well, with the final concentration of 20 μmol/L. The negative control was 150 μL sterilized water with 2% DMSO. 48 h later, 200 ul tips were used to scratch, and after washing 4 times with PBS, 3 ml medium without fetal bovine serum was added per well. Under the inverted microscope, the distance of cell migration was recorded every 3 h, and photos were taken at 0 h and 24 h.

[2] = test system: human breast cancer cell MDA-MB-231; experiment: Scratching assay, migration of MDA-MB-231 (Example 16); format: cell-based; conditions: for average (scratch assay distance): control 13.1667
Protocol: The inhibiting ability of 4-hydroxy-3-nitrobenzoic acid and 4-amino-3nitrobenzoic acid for the migration of human breast cancer cell MDA-MB-231 was tested by scratching assay.
Three lines were marked on the underside of 6-well plate, MDA-MB-231 breast cancer cells in logarithmic growth phase were digested with 0.7 mL 0.08% trypsin for 1 min, and the digestion was stopped with complete culture medium. After centrifugation at 1000 r/min for 3 min, the supernatant was discarded, then 3 mL complete culture medium was added. After pipetting to make suspension of single cell, the cells in the cell suspension was counted, and the concentration of the cells was adjusted to a density of 5×10^5 cells/well to plate the 6 wells plate, and 6 groups of drugs containing complete culture medium (DMEM+10% FBS+1% Penicillin-Streptomycin+drug) were added. After culturing in a incubator for 12 h until the cells were attached, the culture medium was removed, 20 μL tips were used to scratch vertically to the three transverse lines on the underside to obtain 6 distances for counting, and after washing with phosphate buffered saline (PBS) three times, 6 groups of drugs containing culture medium without FBS (DMEM+drug) were added respectively, and the width of the scratches were observed and recorded at 0 h, 3 h, 6 h, 9 h, 12 h and 24 h under inverted microscope, with 6 distances being recorded per well, wherein, photos were taken with inverted microscope at 0 h and 24 h for recording.

MDA-MB-231 cells = experiment: MTT assay, synergistic effect with Paclitaxel (Example 12); format: cell-based, human; conditions: Homo sapiens
Protocol: Synergistic effects of (S)2-(4′-methyl-3′-nitrobenzoylamino)-3-phenylpropionic acid and Paclitaxel was tested by MTT assay.
1) The MDA-MB-231 cells in logarithmic growth phase were seeded in the 96-well plate at a density of 4×10^3/0.2 ml. After culturing for 12 h, 10 μl Paclitaxel solution was added, with the final concentration of 0, 0.001, 0.01, 0.1, 1, 10, 50, 100, 200 μM, then 10 μL (S)2-(4′-methyl-3′-nitrobenzoylamino)-3-phenylpropionic acid PBS solution was add to half of the wells for each group with the final concentration of 20 μM, followed by continuous culturing for 24 or 48 h.
2) 5 mg/mL MTT solution was prepared with sterilized PBS, filtered with 0.22 μm film, and diluted with medium to 1 mg/mL. After discarding the medium in the 96-well plate, 100 μL 1 mg/mL MTT working solution was added, followed by continuous culturing for 5 h.
3) MTT working solution was discarded, and 150 μL DMSO was added per well (note: to away from light). The plate was shaken on a horizontal shaker at 170 rpm for 10 min, and then the absorbance at 490 nm was detected by microplate reader.

4T1-luciferase cells = experiment: In situ model of breast cancer in nude mouse, lung metastasis by in vivo imaging (Example 7); parameters: species or system nude mice; conditions: 50 mg/kg tail vein, twice a day, 21 days; P<0.01
Protocol: 4) An in situ breast cancer model is constructed by in situ inoculating nude mice with 4T1 cells which are stably transfected with Luciferase, and the number of metastatic tumors on the lung is detected by in vivo imaging system. Such a model mimics the occurrence and metastasis of breast cancer.
The ability of (S)2-(4′-methyl-3′-nitrobenzoylamino)-3-phenylpropionic acid for inhibiting tumor metastasis in vivo was tested by in situ model of breast cancer in nude mouse.
1) Mice grouping: Nude female mice of SPF grade, 5 weeks old, 18˜22 g, 8 mice for each group;
2) The mother liquid of (S)2-(4′-methyl-3′-nitrobenzoylamino)-3-phenylpropionic acid (TCI04) for the dosage form administrated by intravenous injection was diluted to 2 mg/mL, 0.1 mg/mL by adding sterilized water. The dosage for administration in mice was as follows, high dosage of 20 mg/kg; low dosage of 1 mg/kg. […]
3) 4T1-luciferase cells in logarithmic growth phase were digested with 0.05% typsine for 1 min, after centrifugation at 1000 rpm for 5 min, the supernatant was discarded and the cells were resuspended and counted. […]
5) After the completion of the administration, the mice were detected by in vivo imaging system for the condition of tumor metastasis and immediately sacrificed; the lungs alone were detected by the in vivo imaging system for the light intensity to determine the number of tumor metastasis.

Molecule: 2-(4′-methyl-3′-nitrobenzoylamino)-3-indolyl propionic acid [TCI05]
inhibition of migration ability (coalescence speed of cell scratch vs negative control) [1]: obviously inhibit

Molecule: Nc1ccc(C(=O)O)cc1[N+](=O)[O-] [4-amino-3-nitrobenzoic acid]
inhibition of migration ability (coalescence speed of cell scratch vs negative control) [2]: obviously inhibit
average (scratch assay distance) [2]: 8.1667 10^−2 mm

Molecule: O=C(O)c1ccc(O)c([N+](=O)[O-])c1 [4-hydroxy-3-nitrobenzoic acid]
inhibition of migration ability (coalescence speed of cell scratch vs negative control) [2]: obviously inhibit
average (scratch assay distance) [2]: 8 10^−2 mm

pIC50 (MDA-MB-231 cells; MDA-MB-231, 24 h, Paclitaxel + 20 μM (S)2-(4′-methyl-3′-nitrobenzoylamino)-3-phenylpropionic acid, read-out: IC50 after 24 h): 6.40
pIC50 (MDA-MB-231 cells; MDA-MB-231, 24 h, Paclitaxel alone, read-out: IC50 after 24 h): 5.40
pIC50 (MDA-MB-231 cells; MDA-MB-231, 48 h, Paclitaxel + 20 μM (S)2-(4′-methyl-3′-nitrobenzoylamino)-3-phenylpropionic acid, read-out: IC50 after 48 h): 7.34
pIC50 (MDA-MB-231 cells; MDA-MB-231, 48 h, Paclitaxel alone, read-out: IC50 after 48 h): 6.29
Molecule: CC(=O)O[C@H]1C(=O)[C@@]2(C)[C@H]([C@H](OC(=O)c3ccccc3)[C@]3(O)C[C@H](OC(=O)[C@H](O)[C@@H](NC(=O)c4ccccc4)c4ccccc4)C(C)=C1C3(C)C)[C@]1(OC(C)=O)CO[C@@H]1C[C@@H]2O [Paclitaxel]

Molecule: Cc1ccc(C(=O)O)cc1[N+](=O)[O-] [TCI01, 4-methyl-3-nitrobenzoic acid, reference compound]
light intensity of the whole lung vs negative control (4T1-luciferase cells): significantly weaker than the negative control

Molecule: Cc1ccc(C(=O)NC(Cc2ccc(O)cc2)C(=O)O)cc1[N+](=O)[O-] (stereo not shown) [TCI06, 2-(4′-methyl-3′-nitrobenzoylamino)-3-(4-hydroxy-phenyl)propionic acid]
inhibition of migration ability (coalescence speed of cell scratch vs negative control) [1]: obviously inhibit

Molecule: Cc1ccc(COC(=O)C(Cc2ccccc2)C(=O)O)cc1[N+](=O)[O-] (stereo not shown) [TCI07, 2-(4′-methyl-3′-nitrobenzenemethoxycarbonyl)-3-phenylpropionic acid]
inhibition of migration ability (coalescence speed of cell scratch vs negative control) [1]: obviously inhibit

Molecule: Cc1ccc(COC(=O)C(Cc2c[nH]c3ccccc23)C(=O)O)cc1[N+](=O)[O-] (stereo not shown) [TCI08, 2-(4′-methyl-3′-nitrobenzenemethoxycarbonyl)-3-indolylpropionic acid]
inhibition of migration ability (coalescence speed of cell scratch vs negative control) [1]: obviously inhibit

From US10512627B2, “Anti-tumor compound and the medical use thereof” (Tianjin Medical University Cancer Institute and Hospital, priority 2014, dated 2019)
